Legend:
[1] = tested on: transplanted tumor of human pancreatic cancer PANC-1 cells; assay: Human pancreatic cancer in nude mice model
Description: (§1) Then cell concentration was adjusted to 1×10^7/ml with matrigel, and then each nude mouse was inoculated subcutaneously with 0.2 ml of cells at its right armpit and recorded as the first day of inoculation. […] Each group was continuously administered intragastrically for 30 days with a dose of 20 ml/kg. The mice were sacrificed the next day after drug withdrawal and the indicators were tested. The long diameter and short diameter of the tumor, and the body weight of each mouse were recorded every 3 days from drug administration to nude mouse sacrifice.
The body weight of the nude mice and the long diameter (a) and short diameter (b) of the transplanted tumor were measured every 3 days, and the tumor volume (v), relative tumor volume (RTV) and relative tumor proliferation rate (T/C) are calculated respectively according to the following formulas, wherein V=a×b^2/2; RTV=V/V0 (V0 is the tumor volume before administration, V is the tumor volume before sacrifice), and T/C (%)=treatment group RTV/model control group RTV×100%
(§2) Each mouse was weighed and sacrificed. After the tumor was completely stripped off from the body of the mouse, the non-tumor tissues such as blood stains and fat were removed to weigh the tumor and calculate the tumor growth inhibition rate. The average tumor weight of each group of mice is used as an indicator of efficacy. Tumor growth inhibition rate (%)=(1−the average tumor weight of the treatment group/the average tumor weight of the model group)×100%.

[2] = tested on: transplanted tumor of human large cell lung cancer H1299 cells; assay: Human large cell lung cancer (H1299) in nude mice model; settings: 30 mg/kg i.g. 30 d
Description: Then cell concentration was adjusted to 1×10^7/ml with matrigel, then each nude mouse was inoculated subcutaneously with 0.2 ml of cells at its right armpit and recorded as the first day of inoculation. […] Each group was continuously administered intragastrically for 30 days with a dose of 20 ml/kg. The mice were sacrificed the next day after drug withdrawal and the indicators were tested. The long diameter and short diameter of the tumor, and the body weight of each mouse were recorded every 3 days from drug administration to nude mouse sacrifice.
(§3) The body weight of the nude mice and the long diameter (a) and short diameter (b) of the transplanted tumor were measured every 3 days, and the tumor volume (v), relative tumor volume (RTV) and relative tumor proliferation rate (T/C) are calculated respectively according to the following formulas, wherein V=a×b^2/2; RTV=V/V0 (V0 is the tumor volume before administration, V is the tumor volume before sacrifice), and T/C (%)=treatment group RTV/model control group RTV×100%.
as §2

[3] = tested on: transplanted tumor of human prostate cancer PC3 cells; assay: Human prostate cancer in nude mice model; settings: 30 mg/kg i.g. 30 d
Description: as §1, §3, §2

[4] = tested on: transplanted tumor of human cervical cancer HeLa cells; assay: Human cervical cancer in nude mice model; settings: 30 mg/kg i.g. 30 d
Description: as §1, with “Then the cells were subjected to trypsinization, centrifugation, and supernatant removal. Then” for “Then”, “matrigel,” for “matrigel, and”
as §3
Calculation of Tumor Growth Inhibition Rate Each mouse was weighed and sacrificed. After the tumor was completely stripped off from the body of the mouse, the non-tumor tissues such as blood stains and fat were removed to weigh the tumor and calculate the tumor growth inhibition rate. The average tumor weight of each group of mice is used as an indicator of efficacy. Tumor growth inhibition rate (%)=(1−the average tumor weight of the treatment group/the average tumor weight of the model group)×100%.

[5] = tested on: transplanted tumor of human large cell lung cancer H460 cells; assay: Human large cell lung cancer (H460) in nude mice model; settings: 30 mg/kg i.g. 30 d
Description: as §1, §3, §2

[6] = tested on: transplanted tumor of mouse Lewis lung cancer; assay: Inhibition of transplanted tumor of mouse Lewis lung cancer
Description: Lewis lung cancer cells were cultured in a RPMI 1640 culture medium containing 10% fetal bovine serum at 37° C. in a 5% CO2 incubator. The cells in the logarithmic growth phase were subjected to trypsinization with 0.25% trypsin, then the cells were collected to be centrifugated to remove the obtained supernatant, then were washed twice with sterile normal saline. […] The Lewis cells were adjusted to 1×10^7/mL in concentration and stored in ice water. 75% ethanol was used to disinfect the skin under the right armpits of the mice, and each C57BL/6 mouse was soon inoculated subcutaneously with 0.2 ml of the cells at its right armpit.
In the Lewis lung cancer model, the mice inoculated with the tumor were randomly divided into groups with 10 mice in each group on the next day of inoculation. […] Each group was continuously administered intragastrically for 15 days with a dose of 20 ml/kg.
The tumor-bearing mice were weighed and sacrificed the next day after the last administration. The subcutaneous tumors were dissected and weighed. The average tumor weight of each group is calculated, and the tumor inhibition rate is calculated. Tumor inhibition rate=(1−T/C)×100%
T: average tumor weight of the drug-administered group; C: average tumor weight of the blank control group.

[7] = PANC-1 nude mice, 30 mg/kg i.g. 30 d

O=P1(N(CCCl)CCCl)NCCCO1 (centres unmarked) [Cyclophosphamide]
Relative Tumor Proliferation Rate(T/C) ([1]; 30 mg/kg): 54.55%
Relative Tumor Volume (RTV) ([1]; 30 mg/kg): 5.54 ± 0.72
Tumor Volume (mm3) (d1) ([1]; 30 mg/kg, d1): 93.73 ± 8.27 mm3
Tumor Volume (mm3) (d30) ([1]; 30 mg/kg, d30): 515.49 ± 32.36 mm3
Body Weight (g)(d1) [1, 7]: 21.89 ± 1.88 g
Body Weight (g)(d30) [1, 7]: 19.92 ± 1.68 g
Inhibition Rate (%) [1, 7]: 80.43%
Tumor Weight [1, 7]: 0.73 ± 0.09 g
Body Weight (g)(d1) [2]: 20.92 ± 0.59 g
Body Weight (g)(d30) [2]: 18.82 ± 0.52 g
Inhibition Rate (%) [2]: 68.59%
Relative Tumor Proliferation Rate(T/C) [2]: 31.47%
Relative Tumor Volume (RTV) [2]: 6.13 ± 0.82
Tumor Volume (mm3) (d1) [2]: 115.38 ± 13.82 mm3
Tumor Volume (mm3) (d30) [2]: 707.28 ± 26.96 mm3
Tumor Weight [2]: 0.56 ± 0.11 g
Body Weight (g)(d1) [3]: 19.32 ± 0.25 g
Body Weight (g)(d30) [3]: 18.68 ± 1.21 g
Inhibition Rate (%) [3]: 70.06%
Relative Tumor Proliferation Rate(T/C) [3]: 23.29%
Relative Tumor Volume (RTV) [3]: 4.67 ± 0.82
Tumor Volume (mm3) (d1) [3]: 108.68 ± 13.62 mm3
Tumor Volume (mm3) (d30) [3]: 507.88 ± 87.93 mm3
Tumor Weight [3]: 0.56 ± 0.4 g
Body Weight (g)(d1) [4]: 20.04 ± 0.68 g
Body Weight (g)(d30) [4]: 19.20 ± 0.18 g
Inhibition Rate (%) [4]: 72.48%
Relative Tumor Proliferation Rate(T/C) [4]: 24.35%
Relative Tumor Volume (RTV) [4]: 3.44 ± 0.93
Tumor Volume (mm3) (d30) [4]: 397.88 ± 103.60 mm3
Tumor Weight [4]: 0.49 ± 0.39 g
Body Weight (g)(d1) [5]: 20.32 ± 0.87 g
Body Weight (g)(d30) [5]: 19.25 ± 0.83 g
Inhibition Rate (%) [5]: 68.49%
Relative Tumor Proliferation Rate(T/C) [5]: 36.37%
Relative Tumor Volume (RTV) [5]: 7.66 ± 1.26
Tumor Volume (mm3) (d1) [5]: 130.82 ± 2.38 mm3
Tumor Volume (mm3) (d30) [5]: 1002.08 ± 48.82 mm3
Tumor Weight [5]: 0.61 ± 0.13 g
Tumor Weight ([6]; 26 mg/kg, positive drug group, 15 days): 0.59 ± 0.13 g
Inhibition Rate (%) ([6]; 26 mg/kg, positive drug group, by tumor weight): 49.14%
Body Weight (g)(d1) ([6]; 26 mg/kg, positive drug group, d1): 25.60 ± 2.06 g
Body Weight (g) (d15) ([6]; 26 mg/kg, positive drug group, d15): 20.14 ± 3.26 g
tumor inhibition rate ([6]; mouse Lewis lung cancer, cyclophosphamide 30 mg/kg i.g. 15 days): 49.14%
